This experiment deals with BGLAP. The experiment can be described thus: BGLAP gene activation assay (BGLAP mRNA, QuantiGene 2.0) in MG-63 cells. Particulars: MG-63 cells; for pEC50: 24 h, average of replicate runs, read-out: EC50, BGLAP activation; for Max. Stim., BGLAP activation: fold change over DMSO normalized to 1,25D3 = 100%. The experiment is classed as cell-based, human. The procedure:
Human osteosarcoma cells MG-63, (CRL-1427, American Type Culture Collection (ATCC), Manassas, VA), were maintained in EMEM (ATCC 30–2003) + 10% FBS in 5% CO2. For bone gamma-carboxyglutamate protein (BGLAP) expression analysis MG-63 cells, suspended in EMEM (ATCC 30–2003) + 5% charcoal dextran treated FBS, were seeded onto 96-well tissue culture treated plates at 25,000 cells per well. After an overnight incubation the medium was removed and serial dilutions of VDRMs in concentrations ranging from 10 μM to 2 nM in EMEM (ATCC 30–2003) + 5% charcoal dextran treated FBS were added. Following a 24 h incubation the medium was removed and the plates were sealed and stored at −80 °C for later processing. QuantiGene 2.0 Assay Kit (Affymetrix QS0009) was used to quantitate BGLAP and the Housekeeping gene […] mRNA levels. Following the kit instructions, lysis buffer was added to the frozen cells and incubated briefly at 55 °C. A volume of 20 μl of BGLAP probeset (Affymetrix SA-10875-01) or 18 S (Affymetrix SA-10026) in blocking buffer was added to the provided capture plates before adding 80 μl of the cell lysate. The plates were sealed and incubated at 55 °C overnight. Following an overnight incubation the capture plates were washed and the probes amplified following kit instructions. The resulting luminescence signal was detected on an Envision (Perkin Elmer). BGLAP signal was normalized using the 18S signal and the resulting data was fit to a 4-parameter logistics to determine EC50.

Data on 3 compounds can be found in paper PMC5640644, “HDX reveals the conformational dynamics of DNA sequence specific VDR co-activator interactions” (Nature Communications, 2017).

pEC50: −log10 of the molar value. Like-named read-outs stand apart in the source and are kept apart here.

Regarding `CCc1cc(C(CC)(CC)c2ccc(OCC(O)C(C)(C)C)c(C)c2)sc1C(=O)N[C@@H](C)C(=O)O` (single isomer, unassigned) [Cmpd2, L-2-[(5-{1-Ethyl-1-[4-(2-hydroxy-3,3-dimethyl-butoxy)-3-methyl-phenyl]-propyl}-3-ethyl-thiophene-2-carbonyl)-amino]-propionic acid], the “Max. Stim., BGLAP activation” value worked out at 73%. Besides, for the setting “Homo sapiens”, the pEC50 was 7.46.
For `CCC(CC)(c1ccc(OCC(O)C(C)(C)C)c(C)c1)c1ccc(C(=O)N(C)CC(=O)O)c(C)c1` (stereo not drawn) [Cmpd1, [(4-{1-ethyl-1-[4-(2-hydroxy-3,3-dimethyl-butoxy)-3-methyl-phenyl]-propyl}-2-methyl-benzoyl)-methyl-amino]-acetic acid], in that order: 94.2% and 8.84.
As for `CCC(CC)(c1ccc(OCC(O)C(C)(C)C)c(C)c1)c1cc(C)c(C(=O)Nc2nnn[nH]2)s1` (stereo not drawn) [Cmpd3, 3'-[4-(2-hydroxy-3,3-dimethylbutoxy)-3-methylphenyl]-3'-[5-(tetrazol-5-yl-aminocarbonyl)-4-methylthiophen-2-yl]pentane], the pEC50 was 6.16 and the “Max. Stim., BGLAP activation” value was 75.9%.
